This note sets out measurements from article PMC9043826, “Dalpulapans A–E from the roots of Dalbergia stipulacea” (RSC Advances, 2021).

SMILES strings stand for the structures.

For orientation: IC50 means the concentration that gives 50% inhibition.

Type in all cases: cell-based
The subject of assay [1] is HeLa (cervical cancer cells). The assay is described as follows: MTT cytotoxicity assay against HeLa cells. To be noted: Homo sapiens. Here is the method:
(§1) All isolated compounds, except 12, were evaluated for cytotoxicity against A549 (lung cancer cells), HeLa (cervical cancer cells) and Vero cells using the MTT assay.
(§2) MTT (3-(4,5-dimethylthiazol-2-yl)-2,5-diphenyltetrazolium bromide) assay was performed to evaluate the cytotoxic effect of the compounds. The procedure has been explained in a previous report.[14] In brief, all cells were cultured in RPMI 1640 medium supplemented with 10% fetal bovine serum, penicillin (100 U mL^−1) and streptomycin (100 μg mL^−1) (Gibco-BRL, USA) and incubated at 37 °C in a humidified atmosphere of 5% CO2. For preliminary testing, cells were exposed to the selected compounds at a concentration of 100 μg mL^−1 for 24, 48 and 72 hours. […] Control groups were treated with a solvent (a mixture of DMSO and ethanol; 1 : 1). After incubation, the medium was replaced with 110 μL of fresh medium containing MTT (0.5 mg mL^−1 in PBS) (Sigma Chemical Co., St. Louis, MO, USA) and incubated for 2 h. […] The absorbance of formazan was measured with a microplate reader (Bio-Rad Laboratories, USA) at the wavelength of 550 nm using 655 nm as a reference wavelength. […] The percentage of viable cells which corresponds to the production of formazan was calculated as previously described (Kumnerdkhonkaen et al. 2018).% Cell viability = [sample (A550 − A655)/control (A550 − A655)] × 100
A general note: Tetrazolium dyes change colour on reduction, which living cells bring about.

Assay [2] deals with Vero cells (kidney of African green monkey cells; normal cells). The assay is described as follows: MTT cytotoxicity assay against Vero (normal) cells. The note with it: Chlorocebus sabaeus. Here is the method: as §1, §2
The subject of a further assay is A549 (lung cancer cells). The assay is described as follows: MTT cytotoxicity assay against A549 cells. To be noted: Homo sapiens. On the procedure:
as §1, §2

Regarding `CC(C)=CCC/C(C)=C/Cc1c(O)ccc2c1OC[C@H]1c3cc4c(cc3O[C@@H]21)OCO4` [Compound 6, R,R-velucarpin A], the figures for the IC50 (in assay [1]; in assay [2]; with A549 (lung cancer cells)) were 10.9 ± 0.42 µM, 29.2 ± 1.16 µM and 14.6 ± 1.31 µM, respectively.
